Results from patent US10925283B2, “Microbiocidal phenylamidine derivatives” (SYNGENTA PARTICIPATIONS AG, priority 2016, dated 2021).

Assays:
Format in all cases: in vivo
[1] = system: Puccinia recondita f. sp. tritici; experiment: Puccinia recondita f. sp. tritici / wheat / leaf disc preventative (brown rust); settings: foliar, wheat leaf segments cv. Kanzler, inoculated 1 day after application, assessed 7-9 days after application, read-out: control of Puccinia recondita f. sp. tritici (percent disease control compared to untreated)
Description: Puccinia recondita f. Sp. Tritici/Wheat/Leaf Disc Preventative (Brown Rust) Wheat leaf segments cv. Kanzler are placed on agar in multiwell plates (24-well format) and sprayed with the formulated test compound diluted in water. The leaf disks are inoculated with a spore suspension of the fungus 1 day after application. The inoculated leaf segments are incubated at 19° C. and 75% rh under a light regime of 12 h light/12 h darkness in a climate cabinet and the activity of a compound is assessed as percent disease control compared to untreated when an appropriate level of disease damage appears in untreated check leaf segments (7-9 days after application).

[2] = system: Phakopsora pachyrhizi; experiment: Phakopsora pachyrhizi / soybean / preventative (soybean rust); settings: foliar, soybean leaf disks, inoculated one day after application, assessed 12-14 days after application, read-out: control of Phakopsora pachyrhizi (percent disease control compared to untreated)
Description: Phakopsora pachyrhizi/Soybean/Preventative (Soybean Rust) Soybean leaf disks are placed on water agar in multiwell plates (24-well format) and sprayed with the formulated test compound diluted in water. One day after application leaf discs are inoculated by spraying a spore suspension on the lower leaf surface. After an incubation period in a climate cabinet of 24-36 hours in darkness at 20° C. and 75% rh leaf disc are kept at 20° C. with 12 h light/day and 75% rh. The activity of a compound is assessed as percent disease control compared to untreated when an appropriate level of disease damage appears in untreated check leaf disks (12-14 days after application).

[3] = system: Puccinia recondita f. sp. tritici; experiment: Puccinia recondita f. sp. tritici / wheat / leaf disc curative (brown rust); settings: foliar, wheat leaf segments cv. Kanzler, compound applied 1 day after inoculation, assessed 6-8 days after application, read-out: control of Puccinia recondita f. sp. tritici (percent disease control compared to untreated)
Description: Puccinia recondita f. Sp. Tritici/Wheat/Leaf Disc Curative (Brown Rust) Wheat leaf segments cv. Kanzler are placed on agar in multiwell plates (24-well format). The leaf segments are inoculated with a spore suspension of the fungus. Plates are stored in darkness at 19° C. and 75% rh. The formulated test compound diluted in water is applied 1 day after inoculation. The leaf segments are incubated at 19° C. and 75% rh under a light regime of 12 h light/12 h darkness in a climate cabinet and the activity of a compound is assessed as percent disease control compared to untreated when an appropriate level of disease damage appears in untreated check leaf segments (6-8 days after application).

[4] = system: Blumeria graminis f. sp. tritici (Erysiphe graminis f. sp. tritici); experiment: Blumeria graminis f. sp. tritici / wheat / leaf disc preventative (powdery mildew on wheat); settings: foliar, wheat leaf segments cv. Kanzler, inoculated 1 day after application, assessed 6-8 days after application, read-out: control of Blumeria graminis f. sp. tritici (percent disease control compared to untreated)
Description: Blumeria graminis f. sp. tritici (Erysiphe graminis f. sp. tritici)/Wheat/Leaf Disc Preventative (Powdery Mildew on Wheat) Wheat leaf segments cv. Kanzler are placed on agar in a multiwell plate (24-well format) and sprayed with the formulated test compound diluted in water. The leaf disks are inoculated by shaking powdery mildew infected plants above the test plates 1 day after application. The inoculated leaf disks are incubated at 20° C. and 60% rh under a light regime of 24 h darkness followed by 12 h light/12 h darkness in a climate chamber and the activity of a compound is assessed as percent disease control compared to untreated when an appropriate level of disease damage appears on untreated check leaf segments (6-8 days after application).

Measured: pest or weed control at 200 ppm

CCO/N=C/CC(O)(c1cc(C)c(/N=C/N(C)CC)cc1OC)C(F)(F)F (stereo not drawn) [E.056, N′-[4-[(3E)-3-ethoxyimino-1-hydroxy-1-(trifluoromethyl)propyl]-5-methoxy-2-methyl-phenyl]-N-ethyl-N-methyl-formamidine]
≥ 80%: all assays above

CCN(C)/C=N/c1cc(OC)c(C(O)(COc2ccccc2)C(F)(F)F)cc1C (stereo not drawn) [E.047, N-ethyl-N′-[5-methoxy-2-methyl-4-[2,2,2-trifluoro-1-hydroxy-1-(phenoxymethyl)ethyl]phenyl]-N-methyl-formamidine]
≥ 80%: all assays above

CCOCCOCC(O)(c1cc(C)c(/N=C/N(C)CC)cc1OC)C(F)(F)F (stereo not drawn) [E.020, N′-[4-[1-(2-ethoxyethoxymethyl)-2,2,2-trifluoro-1-hydroxy-ethyl]-5-methoxy-2-methyl-phenyl]-N-ethyl-N-methyl-formamidine]
≥ 80%: all assays above

CCN(C)/C=N/c1cc(OC)c(C(O)(COCCc2ccccc2)C(F)(F)F)cc1C (stereo not drawn) [E.021, N-ethyl-N′-[5-methoxy-2-methyl-4-[2,2,2-trifluoro-1-hydroxy-1-(2-phenylethoxymethyl)ethyl]phenyl]-N-methyl-formamidine]
≥ 80%: all assays above

CCOC1CCC(C(O)(c2cc(C)c(/N=C/N(C)CC)cc2OC)C(F)(F)F)CC1 (stereo not drawn) [E.080, N′-[4-[1-(4-ethoxycyclohexyl)-2,2,2-trifluoro-1-hydroxy-ethyl]-5-methoxy-2-methyl-phenyl]-N-ethyl-N-methyl-formamidine]
≥ 80%: all assays above

CCN(C)/C=N/c1cc(OC)c(C(O)(COCc2ccc(C)cc2)C(F)(F)F)cc1C (stereo not drawn) [E.027, N-ethyl-N′-[5-methoxy-2-methyl-4-[2,2,2-trifluoro-1-hydroxy-1-(p-tolylmethoxymethyl)ethyl]phenyl]-N-methyl-formamidine]
≥ 80%: all assays above

CCN(C)/C=N/c1cc(OC)c(C(O)(CSc2ccccc2)C(F)(F)F)cc1C (stereo not drawn) [E.072, N-ethyl-N′-[5-methoxy-2-methyl-4-[2,2,2-trifluoro-1-hydroxy-1-(phenylsulfanylmethyl)ethyl]phenyl]-N-methyl-formamidine]
≥ 80%: [1] | [2] | [4]

CCN(C)/C=N/c1cc(OC)c(C(O)(CO[C@H]2CC[C@H](C)CC2)C(F)(F)F)cc1C (stereo partly drawn) [E.004, N-ethyl-N′-[5-methoxy-2-methyl-4-[2,2,2-trifluoro-1-hydroxy-1-[(4-methylcyclohexoxy)methyl]ethyl]phenyl]-N-methyl-formamidine]
≥ 80%: [2]

CCN(C)/C=N/c1cc(OC)c(C(O)(COC2CCCC2)C(F)(F)F)cc1C (stereo not drawn) [E.032, N′-[4-[1-(cyclopentoxymethyl)-2,2,2-trifluoro-1-hydroxy-ethyl]-5-methoxy-2-methyl-phenyl]-N-ethyl-N-methyl-formamidine]
≥ 80%: [2]

CCN(C)/C=N/c1cc(OC)c(C(O)(COCc2ccccc2)C(F)(F)F)cc1C (stereo not drawn) [E.043, N′-[4-[1-(benzyloxymethyl)-2,2,2-trifluoro-1-hydroxy-ethyl]-5-methoxy-2-methyl-phenyl]-N-ethyl-N-methyl-formamidine]
≥ 80%: [1] | [2] | [4]

CCN(C)/C=N/c1cc(OC)c(C(O)(COC2CCC(C)(C)CC2)C(F)(F)F)cc1C (stereo not drawn) [E.038, N′-[4-[1-[(4,4-dimethylcyclohexoxy)methyl]-2,2,2-trifluoro-1-hydroxy-ethyl]-5-methoxy-2-methyl-phenyl]-N-ethyl-N-methyl-formamidine]
≥ 80%: [1] | [3] | [4]

CCN(C)/C=N/c1cc(OC)c(C(O)(COCc2cccc(C)c2)C(F)(F)F)cc1C (stereo not drawn) [E.035, N-ethyl-N′-[5-methoxy-2-methyl-4-[2,2,2-trifluoro-1-hydroxy-1-(m-tolylmethoxymethyl)ethyl]phenyl]-N-methyl-formamidine]
≥ 80%: [1] | [3] | [4]

CCN(C)/C=N/c1cc(OC)c(C(O)(COCc2ccc(F)cc2)C(F)(F)F)cc1C (stereo not drawn) [E.044, N-ethyl-N′-[5-methoxy-2-methyl-4-[2,2,2-trifluoro-1-[(4-fluorophenyl)methoxymethyl]-1-hydroxy-ethyl]phenyl]-N-methyl-formamidine]
≥ 80%: [1] | [2] | [4]

CCN(C)/C=N/c1cc(OC)c(C(O)(CS(=O)(=O)C(C)C)C(F)(F)F)cc1C (stereo not drawn) [E.063, N-ethyl-N′-[5-methoxy-2-methyl-4-[2,2,2-trifluoro-1-hydroxy-1-(isopropylsulfonylmethyl)ethyl]phenyl]-N-methyl-formamidine]
≥ 80%: [1] | [3] | [4]

CCC(CC)OCC(O)(c1cc(C)c(/N=C/N(C)CC)cc1OC)C(F)(F)F (stereo not drawn) [E.024, N-ethyl-N′-[4-[1-(1-ethylpropoxymethyl)-2,2,2-trifluoro-1-hydroxy-ethyl]-5-methoxy-2-methyl-phenyl]-N-methyl-formamidine]
≥ 80%: [2]

CCN(C)/C=N/c1cc(OC)c(C(O)(COCC(C)(C)C)C(F)(F)F)cc1C (stereo not drawn) [E.008, N′-[4-[1-(2,2-dimethylpropoxymethyl)-2,2,2-trifluoro-1-hydroxy-ethyl]-5-methoxy-2-methyl-phenyl]-N-ethyl-N-methyl-formamidine]
≥ 80%: [1] | [3] | [4]

CCN(C)/C=N/c1cc(OC)c(C(O)(COCC2(C)COC2)C(F)(F)F)cc1C (stereo not drawn) [E.018, N-ethyl-N′-[5-methoxy-2-methyl-4-[2,2,2-trifluoro-1-hydroxy-1-[(3-methyloxetan-3-yl)methoxymethyl]ethyl]phenyl]-N-methyl-formamidine]
≥ 80%: [1] | [3] | [4]

CCN(C)/C=N/c1cc(OC)c(C(O)(COCCOC)C(F)(F)F)cc1C (stereo not drawn) [E.012, N-ethyl-N′-[5-methoxy-2-methyl-4-[2,2,2-trifluoro-1-hydroxy-1-(2-methoxyethoxymethyl)ethyl]phenyl]-N-methyl-formamidine]
≥ 80%: [1] | [3] | [4]

CCN(C)/C=N/c1cc(OC)c(C(O)(COCC2CC2(F)F)C(F)(F)F)cc1C (stereo not drawn) [E.031, N′-[4-[1-[(2,2-difluorocyclopropyl)methoxymethyl]-2,2,2-trifluoro-1-hydroxy-ethyl]-5-methoxy-2-methyl-phenyl]-N-ethyl-N-methyl-formamidine]
≥ 80%: [1] | [3] | [4]

CCN(C)/C=N/c1cc(OC)c(C(O)(COC2Cc3ccccc3C2)C(F)(F)F)cc1C (stereo not drawn) [E.010, N-ethyl-N′-[5-methoxy-2-methyl-4-[2,2,2-trifluoro-1-hydroxy-1-(indan-2-yloxymethyl)ethyl]phenyl]-N-methyl-formamidine]
≥ 80%: [1] | [3] | [4]
